Experimental data from US9278994B2, “Short antimicrobial lipopeptides” (Helix BioMedix Inc., priority 2012, dated 2016).
Values after ≈ are worked out from the molar mass of the structure shown. Where a SMILES comes first, the peptide text is derived from it. [ ]: non-standard residue; d: D form. The star is where a group is joined. Palmitoyl = CCCCCCCCCCCCCCCC(=O)*

Assays:
P. acnes = assay type: cell-based, Propionibacterium acnes
Protocol: (§1) 2. Bacterial strains and culture conditions. E. coli UB1005, S. aureus SAP0017 (MRSA) and C. albicans 105 were grown in Mueller Hinton (MH) (Difco, BD Biosciences, MD) agar plates and broth (2 g of beef extract, 17.5 g of acid hydrolysis of casein and 1.5 g of starch per liter) at 37° C. unless otherwise indicated. Bacteria from frozen stock were subcultured onto freshly made MH agar plates prior to susceptibility testing. For P. acnes, the bacterium was grown in BBL™ Brain-Heart infusion (Becton, Dickinson & Company, Sparks Md.) broth or agar plates at 37° C. in anaerobic condition generated using a anaerobic jar and AnaeroGen™ (Oxoid, Basingstoke, Hampshire, England).
(§2) 3. […] The minimal inhibitory concentration (MIC) of each peptide was determined using modified CLSI microtiter broth dilution assay (Methods for Dilution Antimicrobial Susceptibility Tests for Bacteria That Grow Aerobically; Approved Standard—Ninth Edition). An inoculum of 10^5-10^6 colony forming units (CFU)/ml was used or 10^4 CFU/ml for yeast. The MIC value was taken as the lowest peptide concentration at which more than 90% of microbial growth was inhibited after 15 to 20 h of incubation at 37° C. For P. acnes, the incubation was kept under anaerobic condition at 37° C. for 2 weeks before MIC was determined Kill kinetics was performed using a given concentration (about 2-5-fold MIC) of peptide mixed with indicator microorganism. After appropriate dilution the cells were plated on agar plates after defined time intervals and incubated at 37° C. overnight. In the case of P. acnes an extended incubation period was required. The CFU was counted and plotted as survival of bacteria after peptide treatment over time, which indicates the effectiveness of a peptide to kill a microbe.

[1] = test system: EpiDerm (EPI-200) skin tissue; test: Skin tissue toxicity, EpiDerm skin model with MTT assay; assay type: cell-based; conditions: tissue viability (MTT), treated 20 hr
Protocol: 4. Skin tissue toxicity determination. Skin toxicity and compatibility was determined using EpiDerm (EPI-200) skin tissue and MTT Kit (MTT-100) (MatTek, Ashland, Mass.) according to the manufacture's instruction. 1% Triton X-100 and PBS were used as positive (toxic) and negative (non-toxic) control, respectively.
Potential for dermal irritancy of the lipodipeptides was tested using EpiDerm™ Skin Model (MatTek, Ashland, Mass.) in combination with a modified MTT assay. […] EpiDerm™ consists of organized basal, spinous, granular, and cornified layers analogous to those found in vivo. The tissues were treated with each compound at desired concentration for 20 hr.

C. albicans 105 = test system: C. albicans 105
Protocol: (§3) We conducted the minimal inhibitory concentration (MIC) determination using CLSI (Clinical and Laboratory standard Institute) recommended standard protocol for antimicrobials (Methods for Dilution Antimicrobial Susceptibility Tests for Bacteria That Grow Aerobically; Approved Standard—Ninth Edition).
as §1, §2

E. coli UB1005 = test system: E. coli UB1005
Protocol: as §3, §1, §2

S. aureus SAP0017 (MRSA) [2] = test system: S. aureus SAP0017 (MRSA)
Protocol: as §3, §1, §2

S. aureus SAP0017 (MRSA) [3] = assay type: cell-based, Staphylococcus aureus; conditions: for logs of S. aureus eradicated in a kill assay: SAP0017
Protocol: as §2

P. acnes ATCC11827 = test: Kill kinetics in PBS; assay type: cell-based, Propionibacterium acnes; conditions: detection limit 10 CFU/ml
Protocol: as §2

[4] = test system: histamine induced IL-6 expression; test: Anti-inflammatory activity in keratinocytes (data not shown); assay type: cell-based; conditions: human skin keratinocytes
Excerpt: We modified both peptides via N-terminal acetylation with lipids of various lengths to the alpha amino group of KPV and KdPT.

[5] = test system: S. aureus and C. albicans; conditions: Cutuli et al. 2000, no MIC determined; cited from earlier work
[6] = test system: C. albicans strain SC5314; conditions: Rauch et al. 2009; cited from earlier work

MIC P. acnes (P. acnes) [µg/mL]	MIC C. albicans (C. albicans 105) [µg/mL]	MIC E. coli (E. coli UB1005) [µg/mL]	MIC S. aureus (S. aureus SAP0017 (MRSA) [2]) [µg/mL]	Molecule	Toxicity EpiDerm [1] [µg/mL]	logs of S. aureus eradicated in a kill assay (S. aureus SAP0017 (MRSA) [3])	further results
>2000	>2000	>2000	>2000	CC(C)[C@H](NC(=O)[C@@H]1CCCN1C(=O)[C@@H](N)CCCCN)C(=O)O [HB2067, KPV-OH, reference compound] (H-Lys-Pro-Val-OH)	>2000		
>2000	>2000	>2000	>2000	CC(C)[C@H](NC(=O)[C@@H]1CCCN1C(=O)[C@@H](N)CCCCN)C(N)=O [HB2068, KPV-NH2, reference compound] (H-Lys-Pro-Val-NH2)	>2000		
>2000	>2000	>2000	>2000	C[C@@H](O)[C@H](NC(=O)[C@H]1CCCN1C(=O)[C@@H](N)CCCCN)C(N)=O [HB2089, K-dPT-NH2, reference compound] (H-Lys-[dP]-Thr-NH2)	>2000		
>2000	>2000	>2000	>2000	C[C@@H](O)[C@H](NC(=O)[C@H]1CCCN1C(=O)[C@@H](N)CCCCN)C(=O)O [HB2090, K-dPT-OH, reference compound] (H-Lys-[dP]-Thr-OH)	>2000		
2 (≈ 0.00344 mM)	16 (≈ 0.0275 mM)			CCCCCCCCCCCCCCCC(=O)N[C@@H](CCCCN)C(=O)N1CCC[C@@H]1C(=O)N[C@H](C(N)=O)[C@@H](C)O [HB2178, Pal-K-dPT-NH2] (Palmitoyl-Lys-[dP]-Thr-NH2)	>2000	5-6 logs	survival of microbes (CFU/ml), 0 hr (S. aureus SAP0017 (MRSA) [3]; S. aureus in PBS, 0 hr, detection limit 10 CFU/ml): 23050000 CFU/ml; survival of microbes (CFU/ml), 20 min (S. aureus SAP0017 (MRSA) [3]; S. aureus in PBS, 20 min, detection limit 10 CFU/ml): <10 CFU/ml; survival of microbes (CFU/ml), 1 hr (S. aureus SAP0017 (MRSA) [3]; S. aureus in PBS, 1 hr, detection limit 10 CFU/ml): <10 CFU/ml; survival of microbes (CFU/ml), 2 hr (S. aureus SAP0017 (MRSA) [3]; S. aureus in PBS, 2 hr, detection limit 10 CFU/ml): <10 CFU/ml; survival of microbes (CFU/ml), 3 hr (S. aureus SAP0017 (MRSA) [3]; S. aureus in PBS, 3 hr, detection limit 10 CFU/ml): <10 CFU/ml; survival of microbes (CFU/ml), 0 hr (P. acnes ATCC11827; 0 hr): 750000 CFU/ml; survival of microbes (CFU/ml), 20 min (P. acnes ATCC11827; 20 min): 20 CFU/ml; survival of microbes (CFU/ml), 1 hr (P. acnes ATCC11827; 1 hr): <10 CFU/ml; survival of microbes (CFU/ml), 2 hr (P. acnes ATCC11827; 2 hr): <10 CFU/ml; survival of microbes (CFU/ml), 3 hr (P. acnes ATCC11827; 3 hr): <10 CFU/ml
1 to 2	16 (≈ 0.0276 mM)	128 (≈ 0.221 mM)	8 (≈ 0.0138 mM)	CCCCCCCCCCCCCCCC(=O)N[C@@H](CCCCN)C(=O)N1CCC[C@H]1C(=O)N[C@H](C(N)=O)C(C)C [HB2180, Pal-KPV-NH2] (Palmitoyl-Lys-Pro-Val-NH2)	>2000	5-6 logs	
1 (≈ 0.00208 mM)	16 (≈ 0.0333 mM)	64 (≈ 0.133 mM)	16 (≈ 0.0333 mM)	CCCCCCCCCCCCCCCC(=O)N[C@@H](CCCCN)C(=O)N1CCC[C@H]1C(N)=O [HB2202, Pal-KP-NH2] (Palmitoyl-Lys-Pro-NH2)	>2000		
1 to 2	16 (≈ 0.0333 mM)	128 (≈ 0.266 mM)	8 (≈ 0.0166 mM)	CCCCCCCCCCCCCCCC(=O)N[C@@H](CCCCN)C(=O)N1CCC[C@@H]1C(N)=O [HB2203, Pal-K-dP-NH2] (Palmitoyl-Lys-[dP]-NH2)	>2000		
1 (≈ 0.00181 mM)	16 (≈ 0.029 mM)	128 (≈ 0.232 mM)	16 (≈ 0.029 mM)	CCCCCCCCCCCCCCCC(=O)N[C@@H](CCCCN)C(=O)N1CCC[C@H]1C(=O)N[C@@H](C)C(N)=O [HB2208, Pal-KPA-NH2] (Palmitoyl-Lys-Pro-Ala-NH2)	>2000	5-6 logs	
4 to 8	32 (≈ 0.0539 mM)	>2000	16 (≈ 0.0269 mM)	CCCCCCCCCCCCCCCC(=O)N[C@@H](CCCCN)C(=O)N1CCC[C@H]1C(=O)N[C@@H](CC(C)C)C(N)=O [HB2209, Pal-KPL-NH2] (Palmitoyl-Lys-Pro-Leu-NH2)	>2000	5-6 logs	
>2000	>2000	>2000	>2000	NCCCC[C@H](N)C(=O)N1CCC[C@H]1C(N)=O [HB2230, KP-NH2] (H-Lys-Pro-NH2; N-terminus assumed)			anti-inflammatory activity against histamine induced IL-6 expression [4]: moderate anti-inflammatory activity
>2000	>2000	>2000	>2000	NCCCC[C@H](N)C(=O)N1CCC[C@@H]1C(N)=O [HB2231, K-dP-NH2] (H-Lys-[dP]-NH2; N-terminus assumed)			anti-inflammatory activity against histamine induced IL-6 expression [4]: moderate anti-inflammatory activity
				lysine-proline-valine [KPV]			antimicrobial activity in phosphate buffer [5]: antimicrobial activity; concentration up to which yeast growth was not inhibited [6]: > 100 µM
